Results: patent US11311552B2, “Therapies for cancer” (PROXIMAGEN, LLC, priority 2015, dated 2022)

What was measured:
Format in all cases: in vivo
[1] = system: haematopoietic stem cells (HSCs) and progenitor cells (CFU-GEMM); experiment: mobilisation of haematopoietic progenitor cells in mice (FIG. 1); conditions: assessed 1 hour later, vs vehicle
Protocol: FIG. 1 is a graph showing the degree of mobilisation of haematopoietic stem cells (HSCs) and progenitor cells (CFU-GEMM) in mice following injection of vehicle, AMD3100 (5 mg/kg) and 6-{4-[1-(Propan-2-yl)piperidin-4-yl]-1,4-diazepan-1-yl}-N-(pyridin-4-yl)pyridine-2-carboxamide (30 mg/kg).
In the experiment represented by FIG. 1, groups of 5 mice were injected with vehicle, AMD3100 (5 mg/kg) or injected sub cutaneously with 6-{4-[1-(Propan-2-yl)piperidin-4-yl]-1,4-diazepan-1-yl}-N-(pyridin-4-yl)pyridine-2-carboxamide (30 mg/kg) and the mobilisation of haematopoietic progenitor cells assessed 1 hour later. The data are expressed for the multipotential GEMM cells as colony forming units per ml of peripheral blood.

[2] = system: human glioblastoma cell line (T98G); experiment: T98G subcutaneous xenograft growth in nude mice (FIG. 2, 3)
Protocol: The solid line represents the control (i.e. untreated). The data in FIG. 2 are presented as % of the tumours progressing in groups of 8-10 mice, where progression is defined as a 20% increase in tumour volume. Tumour volume was determined by measuring the width and depth of the tumour with calipers, and then calculating the volume. […] After 15 days all of the control mice had progressed, whereas none of the mice treated with 6-{4-[1-(Propan-2-yl)piperidin-4-yl]-1,4-diazepan-1-yl}-N-(pyridin-4-yl)pyridine-2-carboxamide had done so. Inhibition of growth of human glioblastoma cell line (T98G) in nude mice is expected to be predictive of a beneficial therapeutic outcome in human cancer patients, including patients suffering from glioblastoma and astrocytoma.
After the subcutaneous tumours had grown to at least 120 mm^3 the mice were randomised into groups and treated with temozolomide (16 mg/kg po daily for 5 days) and 6-{4-[1-(Propan-2-yl)piperidin-4-yl]-1,4-diazepan-1-yl}-N-(pyridin-4-yl)pyridine-2-carboxamide (50 mg/kg, once per day by oral gavage, for 5 days every week, dotted line).
The data are presented in FIG. 3 as % of the tumours progressing in groups of 8-10 mice, where progression is defined as a 20% increase in tumour volume.

[3] = system: human glioblastoma cell line (U87MG); experiment: orthotopic (intracranial) U87MG tumours in nude mice: survival and time to progression by luminescence (FIG. 4-10)
Protocol: The experiments represented by FIGS. 4, 5, and 6 had the same control (i.e. vehicle only), and therefore the same control data. For improved clarity, the line representing the control data has been removed from FIGS. 5 and 6, but retained in FIG. 4.
Nude mice were immobilized on a stereotaxic apparatus and anaesthetized. The operative field was prepared with betadine. A small hole was made at 1.0 mm anterior and 2 mm lateral to the exposed bregma. A sterile 5 μL Hamilton syringe with a 26 gauge needle was inserted at a depth of 3.0 mm from the skull surface and withdrawn by 0.5 mm to inject 3×10^3 U87MG cells in a volume of 3 μL. The injection rate was set up to 1 μL/min. After the implantation of the tumour cells, the needle was left in place for 5 min to prevent reflux. The needle was then completely withdrawn from the brain over the course of […] (1.0 mm/min), and the skin was sutured. Just before treatment initiation (5 days after injection), animals were randomized to treatment groups of 10 mice each. A small amount of cells was chosen (3×10^3) to simulate a chemo-radiotherapic treatment made after surgery in which a low number of tumour cells remain in the operatory bed, re-grow and give arise to a recurrence. Treatments were started 5 days after cell injection when no luciferase activity was detectable intracranially, and continued for 35 days. Time to progression (i.e. detection of luminescence) was assessed, and the mice followed for up to 180 days. […] The y axis parameter ‘survival’ is the percentage of mice not yet euthanized. The y axis parameter ‘probability of detection’ is the percentage of mice having a tumour that has progressed to the stage where luminescence is detected.
The following dosage administrations were used: 6-{4-[1-(Propan-2-yl)piperidin-4-yl]-1,4-diazepan-1-yl}-N-(pyridin-4-yl)pyridine-2-carboxamide was dosed at 50 mg/kg po once daily. Bevacizumab was dosed at 4 mg/kg iv every 4 days. Temozolomide was dosed at 32 mg/kg po daily. Sunitinib was dosed at 40 mg/kg po daily. Radiotherapy consisted of 3×2Gy daily.
For this experiment, 5×10^3 U87MG cells were injected using the technique described above. Following injection of the U87MG cells, tumours were detectable in the mice, which were treated for 28 days.

Row | SMILES | mobilisation of HSCs from the mouse bone marrow (CFU-GEMM, colony forming units per ml of peripheral blood) ([1]; 30 mg/kg sub cutaneously) | mice with tumour progression (20% increase in tumour volume) after 15 days ([2]; 50 mg/kg once per day by oral gavage, 5 days every week, all control mice had progressed) | growth of T98G subcutaneous xenografts compared to control ([2]; alone, 50 mg/kg once per day by oral gavage, 5 days every week) | anti-tumour efficacy on T98G subcutaneous xenografts (% of tumours progressing) ([2]; combination: 50 mg/kg po once per day 5 days every week + temozolomide 16 mg/kg po daily for 5 days) | delay of tumour growth (probability of detection), HR ([3]; alone, 50 mg/kg po once daily, p<0.001, FIG. 9A/9B) | delay of growth of the tumour to a size detectable through luminescence, H.R. ([3]; alone, 50 mg/kg po once daily, to vehicle, FIG. 8A/8B) | survival, HR ([3]; combination with Bevacizumab 4 mg/kg iv every 4 days, 50 mg/kg po once daily, vs vehicle, p=0.002, FIG. 4) | time taken for progression of tumours (detection by luminescence), HR ([3]; combination with Bevacizumab 4 mg/kg iv every 4 days, vs vehicle, p=0.0001, FIG. 8A) | survival, HR ([3]; combination with Sunitinib 40 mg/kg po daily, 50 mg/kg po once daily, vs vehicle, p=0.2, FIG. 7) | time taken for progression of tumours (detection by luminescence), HR ([3]; combination with Sunitinib 40 mg/kg po daily, vs vehicle, p=0.0001, FIG. 8B) | survival, HR ([3]; combination with Temozolomide 32 mg/kg po daily, 50 mg/kg po once daily, vs Temozolomide alone, p=0.02, FIG. 5) | survival, HR ([3]; combination with irradiation and temozolomide, 5x10^3 U87MG cells, tumours detectable, treated for 28 days, p=0.025, FIG. 10) | survival, HR ([3]; combination with radiotherapy 3x2Gy daily, 50 mg/kg po once daily, vs radiotherapy alone, p=0.0002, FIG. 6) | delay of tumour growth (probability of detection), HR ([3]; irradiation (3x2Gy daily) alone vs combination with irradiation, p=0.0001, FIG. 9A) | delay of tumour growth (probability of detection), HR ([3]; temozolomide (32 mg/kg po daily) alone vs combination with temozolomide, p=0.01, FIG. 9B) | mobilisation of HSCs from the mouse bone marrow (CFU-GEMM, colony forming units per ml of peripheral blood) ([1]; 5 mg/kg, P<0.05)
1 | CC(C)N1CCC(N2CCCN(c3cccc(C(=O)Nc4ccncc4)n3)CC2)CC1 [6-{4-[1-(Propan-2-yl)piperidin-4-yl]-1,4-diazepan-1-yl}-N-(pyridin-4-yl)pyridine-2-carboxamide] | does not result in significant mobilisation | none | inhibits the growth | synergistic | 3.7 | 3.5 | 3.4 | 9.7 | 1.6 | 5.3 | 2.8 | 2.3 | 4.0 | 4.6 | 2.9 | –
2 | c1cc(CN2CCCNCCNCCCNCC2)ccc1CN1CCCNCCNCCCNCC1 [AMD3100, reference compound] | – | – | – | – | – | – | – | – | – | – | – | – | – | – | – | significantly greater than that caused by vehicle
